Data: article PMC8765437, “GSK3640254 Is a Novel HIV-1 Maturation Inhibitor with an Optimized Virology Profile” (Antimicrobial Agents and Chemotherapy, 2022)
Like-named read-outs stand apart in the source and are kept apart here.

Experiments:
[1] = system: HIV-1 laboratory strains; test: Laboratory strains, reverse transcriptase activity in MT-2 cells; type: cell-based
Description: Virus yields were measured in dose-response experiments by either luciferase activity in human T-cells (CEM-NKR-CCR5-Luc), extracellular reverse transcriptase activity in MT-2 cells (T-tropic viruses), or extracellular p24 antigen in PM1 cells (M-tropic viruses).
Multiple-cycle assays using recombinant viruses or clinical isolates were used to assess MI antiviral activity as described previously ([10]). pNLRepRlucP373S (the P373S change is in the Gag gene and converts an outlier polymorphism in the NL4-3 gene to the prevalent amino acid in the population) plasmids containing SDMs in Gag or gag/pr regions from clinical isolates were transfected into HEK 293T cells, and the supernatant containing recombinant virus was harvested after 4 to 5 days. Virus was used to infect MT-2 cells in the presence of a 3-fold serially diluted compound at a final dimethyl sulfoxide (DMSO) concentration of 1%. The inocula of the reporter viruses were determined based on the luciferase activity detected on day 4 postinfection. The MOI (ratio of infectious virions to target cells) of reporter-free laboratory strains and clinical isolates was 0.005, as derived from a tissue culture infectious dose study. Clinical isolates or reporter-free viruses were examined in the reporter CEM-NKR-CCR5-Luc cells or PBMCs at MOIs ranging from 0.005 to 0.01. Each infection started with a drug-free preincubation of the cell-virus mixtures, performed at 37°C and 5% CO2 for either 1 h at 2 times the final cell density (reporter viruses) or 1 h (reporter-free laboratory strains) or 3 h (clinical isolates) using cell pellets in 0.5 mL of medium. After preincubation, cell-virus mixtures were added to compound-containing 96-well plates for a final cell density of either 10,000 (MT-2 cells for reporter viruses), 20,000 (MT-2 and PM1 cells for reporter-free laboratory strains), 200,000 (PBMCs for clinical isolates), or 500,000 (CEM-NKR-CCR5-Luc for reporter-free laboratory strains) cells per well. The CEM-NKR-CCR5-Luc cell assay was performed in the presence of Polybrene (10 μg/mL). Virus growth was determined on days 4 to 5 postinfection for reporter variants or days 5 to 11 for the other viruses. The reporter viruses were detected by a luciferase assay according to manufacturer protocols (Brite-Glo luciferase kit [Promega] for CEM-NKR-CCR5-Luc cells and Dual-Luciferase Reporter 1000 assay system [Promega] for the other cells), and luminescence was detected on a Wallac Trilux. The growth of clinical isolates in PBMCs was quantitated by reverse transcriptase activity in a 96-well scintillation proximity assay (SPA). Twenty microliters of culture supernatants was mixed with 40 μL of reaction cocktail (62.5 mM Tris-HCl [pH 7.8], 100 mM KCl, 0.0625% NP-40, 2.5 mM dithiothreitol [DTT], 6.25 mM MgCl2, 1 mM EGTA, 6.25 μg/mL of poly rA, 2.5 μg/mL of streptavidin SPA beads prebound with biotinylated-dT12-18, and 1 μCi of [^3H]TTP). Mixtures were incubated at 37°C for ∼3 h and quenched with 100 μl of 0.25 M EDTA per well. Luminescence was detected on a Wallac Trilux programmed for tritium counting with SPA beads in opaque plates. The growth of the reporter-free laboratory M-tropic strains and clinical isolates was monitored by a p24 enzyme-linked immunosorbent assay (ELISA; PerkinElmer Life Sciences, Waltham, MA) performed on culture supernatants.
Maximal percent inhibition values were calculated as MPI = 100 – (mean signals at the 2 highest concentrations of compound/mean signal of 2 no-drug control wells) × 100.

[2] = system: RepRlucNL4-3GagP373S variants; test: Virus breakthrough in MT-2 cell culture in the presence of compound; type: cell-based, HIV-1; conditions: for Days to virus breakthrough, Expt 1 / Days to virus breakthrough, Expt 2: drug 80 nM; for samples exhibiting breakthrough: low and high MOIs, 80 nM, over the 46-day experiment
Description: The ability of virus to break through and grow in the presence of an inhibitory concentration of a compound in cell culture provides an indication of its resistance barrier. […] Experiments were performed in duplicate at a low or high MOI (0.005 and 0.05) and at a drug concentration of 80 nM with RepRlucP373S WT virus or SDM-containing virus with known Gag polymorphisms (Table 6).
Cultures were incubated at 37°C and 5% CO2 until ∼100% cytopathic effect (CPE) was observed. […] At each passage, 100 μL of culture supernatant was collected and stored at −20°C. When a culture reached 100% CPE, it was terminated, and supernatants were harvested for subsequent virus population sequencing.

[3] = Human immunodeficiency virus 1, NL43, MT2, NL4-3, second value in cell, read-out: EC50 (converted)

Row | SMILES | EC50 [1, 3] [nM] | Days to virus breakthrough, Expt 1 ([2]; High MOI (0.05), V362I) [days] | Days to virus breakthrough, Expt 2 ([2]; High MOI (0.05), V362I) [days] | Days to virus breakthrough, Expt 1 ([2]; High MOI (0.05), V370A) [days] | Days to virus breakthrough, Expt 2 ([2]; High MOI (0.05), V370A) [days] | Days to virus breakthrough, Expt 1 ([2]; High MOI (0.05), V370M) [days] | Days to virus breakthrough, Expt 2 ([2]; High MOI (0.05), V370M) [days] | Days to virus breakthrough, Expt 1 ([2]; High MOI (0.05), Wild type) [days] | Days to virus breakthrough, Expt 2 ([2]; High MOI (0.05), Wild type) [days] | Days to virus breakthrough, Expt 1 ([2]; Low MOI (0.005), V362I) [days] | Days to virus breakthrough, Expt 2 ([2]; Low MOI (0.005), V362I) [days] | Days to virus breakthrough, Expt 1 ([2]; Low MOI (0.005), V370A) [days] | Days to virus breakthrough, Expt 2 ([2]; Low MOI (0.005), V370A) [days] | Days to virus breakthrough, Expt 1 ([2]; Low MOI (0.005), V370M) [days] | Days to virus breakthrough, Expt 2 ([2]; Low MOI (0.005), V370M) [days] | Days to virus breakthrough, Expt 1 ([2]; Low MOI (0.005), Wild type) [days] | Days to virus breakthrough, Expt 2 ([2]; Low MOI (0.005), Wild type) [days] | samples exhibiting breakthrough [2] | also measured
1 | C=C(C)[C@@H]1CC[C@]2(NCCN3CCS(=O)(=O)CC3)CC[C@]3(C)[C@H](CC[C@@H]4[C@@]5(C)CC=C(C6=CC[C@@](CF)(C(=O)O)CC6)C(C)(C)[C@@H]5CC[C@]43C)[C@@H]12 [GSK’254] | 7.3 | 11 | 11 | >46 | >46 | 21 | 11 | >46 | 18 | 46 | >46 | >46 | 11 | >46 | 18 | 14 | >46 | 9 of 16 | 
2 | C=C(C)[C@@H]1CC[C@]2(NCCN3CCS(=O)(=O)CC3)CC[C@]3(C)[C@H](CC[C@@H]4[C@@]5(C)CC=C(c6ccc(C(=O)O)cc6)C(C)(C)[C@@H]5CC[C@]43C)[C@@H]12 [GSK’795, reference compound] | 19 | 7 | 7 | 11 | 11 | 7 | 7 | 11 | 14 | 7 | 11 | 11 | 18 | 7 | 11 | >46 | 14 | 15 of 16 | EC50 ([1]; Human immunodeficiency virus 1, HXB2, MT2, HXB2, footnote b: RT activity in MT-2 cells, read-out: GSK’795 EC50 ± SD): 9.3 ± 3.9 nM; EC50 ([1]; Human immunodeficiency virus 1, IIIB, MT2, IIIB, footnote b: RT activity in MT-2 cells, read-out: GSK’795 EC50 ± SD): 2.5 ± 0.8 nM; EC50 ([1]; Human immunodeficiency virus 1, MT2, LAI, footnote b: RT activity in MT-2 cells, read-out: GSK’795 EC50 ± SD): 2.4 ± 0.8 nM; EC50 ([1]; Human immunodeficiency virus 1, MT2, MN, footnote b: RT activity in MT-2 cells, read-out: GSK’795 EC50 ± SD): 1 nM; EC50 ([1]; Human immunodeficiency virus 1, MT2, RF, head footnote b: RT activity in MT-2 cells unless otherwise noted, read-out: GSK’795 EC50 ± SD): 6.9 ± 2.8 nM; EC50 ([1]; Human immunodeficiency virus 1, NL43, MT2, NL4-3, first value in cell, footnote b: RT activity in MT-2 cells, read-out: GSK’795 EC50 ± SD): 3.9 ± 2.2 nM
